Publication PMC7344659, “Bioactivity of Spongian Diterpenoid Scaffolds from the Antarctic Sponge Dendrilla antarctica” (Marine Drugs, 2020)
Read-outs that look alike come from different tables or passages of the source.

Columns and labels:
Leishmania donovani [1] = experiment: Leishmania donovani infected macrophage assay; format: cell-based
Description: (§1) The full suite of Dendrilla antarctica-derived compounds, with the exception of darwinolide (1) and dendrillin D (12) owing to mass limitations, were tested against Leishmania donovani infected macrophages, liver-stage sporozoites in primary human hepatocytes, and against MRSA biofilm. Cytotoxicity was evaluated using the mammalian J774A.1 cell line in L. donovani-active compounds, while primary human hepatocytes were evaluated for malaria-active compounds.
(§2) The results from the Leishmania donovani assay (Table 2) indicate activity commensurate with the positive control and current standard of care, miltefosine (2.9 µM) is observed in aplysulphurin (2, 3.1 μM), tetrahydroaplysulphurin-1 (4, 3.5 μM), dendrillin B (10, 3.5 μM), 8-ketodihydrogracilin (13, 4.5 μM), and triol 15 (4.5 μM).
(§3) The Leishmania donovani cell line infected macrophage assay and cytotoxicity screen were conducted as previously described.

J774A.1 macrophages [2] = experiment: J774A.1-cell cytotoxicity assay (uninfected macrophage); format: cell-based; settings: Mus musculus, J774.A1; cytotoxicity, uninfected J774A.1 macrophages; single point determination; read-out: Leishmania donovani IC50 Uninfected Macrophage
Description: as §1, §3

Plasmodium falciparum [3] = experiment: Liver-stage Plasmodium falciparum assay in primary human hepatocytes; format: cell-based; settings: for inhibition at 5 µg/mL: Plasmodium falciparum, Hepatocyte, 5 μg/mL, infected primary human hepatocytes, % (Standard Deviation), n = 3, read-out: Plasmodium falciparum Inhibition at 5 μg/mL Infected PHHs; for concentration with 100% inhibition against P. falciparum infected liver cells / concentration with modest activity (60% inhibition) against P. falciparum infected liver cells: screen at fixed 5 µg/mL; for concentration with 100% inhibition against P. falciparum infected liver cells: 100% inhibition level (highest level); for concentration with modest activity (60% inhibition) against P. falciparum infected liver cells: 60% inhibition level
Description: as §1
(§4) For the Plasmodium falciparum infected liver cells, screening was conducted at a fixed concentration of 5 µg/mL for each compound, and activities representing 60% inhibition and 100% inhibition are reported in comparison with the positive control primaquine. […] Aplysulphurin (2) at ≤13 μM was also active at the highest level.
(§5) The liver-stage Plasmodium falciparum assay was conducted as previously reported.

[4] = system: primary human hepatocytes; experiment: Cytotoxicity towards uninfected primary human hepatocytes; format: cell-based; settings: for inhibition at 5 µg/mL: Hepatocyte, 5 μg/mL, uninfected primary human hepatocytes, % (Standard Deviation), n = 3, read-out: Plasmodium falciparum Inhibition at 5 μg/mL Uninfected PHHs; for cytotoxicity towards uninfected primary human hepatocytes (in words): 5 µg/mL screen
Description: as §1, §4, §5

MRSA biofilm = MRSA biofilm eradication assay; format: cell-based, methicillin-resistant Staphylococcus aureus; settings: for inhibition at 25 µg/mL / inhibition at 50 µg/mL / inhibition at 100 µg/mL: Staphylococcus aureus, MRSA; for inhibition at 50 µg/mL: 50 μg/mL; for inhibition at 100 µg/mL: 100 μg/mL; for Pathogen Activity, MRSA Biofilm: Table 3, no unit printed there (58 μM); for concentration at which activity against MRSA biofilm was exhibited: eradication level not given
Description: The MRSA biofilm assay was carried out at concentrations of 100, 50, and 25 µg/mL for each compound, and activities representing 50% and 90% eradication are reported.
The MRSA biofilm assay was conducted as previously reported.

Leishmania donovani [5] = system: Leishmania donovani; set-up: method as in PMID 32281798; settings: ref [15], cited from earlier work
J774A.1 macrophages [6] = system: J774A.1 macrophages; set-up: method as in PMID 32281798; settings: ref [15], cited from earlier work
[7] = J774A.1-cell cytotoxicity assay (uninfected macrophage); format: cell-based; settings: mouse, J774A.1 macrophage cells (uninfected); Table 3; unit not given (μM in Table 2); read-out: J774 Cytotoxiciy
Description: as §1, §3

[8] = Leishmania donovani infected macrophage assay; format: cell-based; settings: mouse, J774A.1 cytotoxicity / L. donovani activity; read-out: selectivity index (SI, mammalian cytotoxicity/antiprotozoal activity)
Description: as §1, §2, §3

Plasmodium falciparum [9] = experiment: Liver-stage Plasmodium falciparum assay in primary human hepatocytes; format: cell-based; settings: Table 3; SI = J774 IC50/pathogen IC50
[10] = system: methicillin-resistant Staphylococcus aureus (MRSA) biofilm; set-up: method as in PMID 27175857; settings: ref [17]; cited from earlier work
[11] = Leishmania donovani, J774.A1, J774A.1 macrophages, single point determination, read-out: Leishmania donovani IC50 Infected Macrophage
[12] = J774A.1 macrophages, single point determination, read-out: Leishmania donovani IC50 Infected Macrophage
[13] = cytotoxicity, uninfected J774A.1 macrophages, single point determination, read-out: Leishmania donovani IC50 Uninfected Macrophage
[14] = Leishmania donovani, Macrophage, Table 3, unit not given (μM in Table 2), read-out: Pathogen Activity, Leishmania donovani
[15] = Table 3, no unit printed there, same values marked as from reference in Table 2, read-out: J774 Cytotoxiciy

Row | IC50 (Leishmania donovani [1]; [11]) | Compound | IC50 (J774A.1 macrophages [2]) | inhibition at 5 µg/mL (Plasmodium falciparum [3]) | inhibition at 5 µg/mL [4] | inhibition at 25 µg/mL (MRSA biofilm; 25 μg/mL, % (Std. Dev.), n = 6) | inhibition at 50 µg/mL (MRSA biofilm; % (Std. Dev.), n = 6) | inhibition at 100 µg/mL (MRSA biofilm; % (Std. Dev.), n = 6) | also measured
1 | 16 µM | C[C@H]1C(=O)O[C@@H]2OC[C@@H]3CCC([C@@]4(C)CCCC(C)(C)C4)=C1[C@@H]32 [Cadlinolide C (8), cadlinolide C] | > 160 µM | 0% | 0% | 2.6% | 35% | 85.4% | 
2 | > 31 µM | CCC1=C(C=O)[C@H](C(=O)OC)CC[C@@H]1[C@@]1(C)CCCC(C)(C)C1 (relative stereo) [Dendrillin C (11), dendrillin C] | > 160 µM | 1.3% | 3.4% | 84% | 97.8% | 99.2% | IC50 [7]: > 160 µM; Pathogen Activity, MRSA Biofilm (MRSA biofilm): 78; concentration achieving 50% eradication of MRSA biofilm (MRSA biofilm; tested at 100, 50 and 25 µg/mL, 50% eradication): 25 µg/mL; concentration at which activity against MRSA biofilm was exhibited (MRSA biofilm; tested at 100, 50 and 25 µg/mL): 50 µg/mL
3 | 14 µM | CC(=O)O[C@@H]1O[C@H](OC(C)=O)[C@@H]2[C@H]1CC[C@H](/C(C)=C1/CCCC1(C)C)C2(C)C [Compound 7] | 18 µM | 39.3% | 0.7% | 3.9% | 28.7% | 2.9% | 
4 | 4.5 µM | CC(=O)OC1OC(OC(C)=O)C2C(=O)C(C3(C)CCCC(C)(C)C3)CCC12 (stereo not shown) [8-Ketodihydrogracilin (13), 8-ketodihydrogracilin] | 22 µM | 0% | 2.3% | 5.7% | 97.7% | 99.7% | IC50 (Leishmania donovani [1]; [14]): 4.5 µM; Selectivity Index (SI), Leishmania donovani (Leishmania donovani [1]; Table 3, SI = J774 IC50/pathogen IC50): 5; IC50 [7]: 22 µM; concentration at which activity against MRSA biofilm was exhibited (MRSA biofilm; tested at 100, 50 and 25 µg/mL): 50 µg/mL
5 | 9.9 µM | CC(=O)O[C@@H]1OC2OC(=O)[C@H](C)C34OOC([C@@]5(C)CCCC(C)(C)C5)(CC[C@@H]1C23)O4 (stereo partly shown) [Ozonide (14), tetrahydroaplysulphurin ozonide] | 17 µM | 61.7% | 18.6% | 17.7% | 40.6% | 99.9% | concentration with modest activity (60% inhibition) against P. falciparum infected liver cells (Plasmodium falciparum [3]): ≤ 15 µM
6 | 6 µM | CC(=O)OC1OC(OC(C)=O)C2C1CCC(C1(C)CCCC(C)(C)C1)C21OC1C (stereo not shown) [Dendrillin A (9), dendrillin A] | 9 µM | 4.3% | 2.9% | 0% | 0% | 0% | 

The next lines start with the compound.

Row | Compound | IC50 (Leishmania donovani [1]; [11]) | IC50 (J774A.1 macrophages [2]) | inhibition at 5 µg/mL (Plasmodium falciparum [3]) | inhibition at 5 µg/mL [4] | inhibition at 25 µg/mL (MRSA biofilm; 25 μg/mL, % (Std. Dev.), n = 6) | inhibition at 50 µg/mL (MRSA biofilm; % (Std. Dev.), n = 6) | inhibition at 100 µg/mL (MRSA biofilm; % (Std. Dev.), n = 6) | also measured
7 | CC(=O)O[C@@H]1O[C@H]2OC(=O)[C@H](C)c3c([C@@]4(C)CCCC(C)(C)C4)ccc1c32 [Aplysulphurin (2), aplysulphurin] |  |  | 100% | 7.6% | 6.5% | 29.4% | 21.1% | concentration with 100% inhibition against P. falciparum infected liver cells (Plasmodium falciparum [3]): ≤ 13 µM; cytotoxicity towards uninfected primary human hepatocytes (in words) [4]: no discernable cytotoxicity; IC50 (Leishmania donovani [5]; J774A.1 macrophages, single point determination, listed as 2, read-out: Leishmania donovani IC50 Infected Macrophage): < 10 µM; IC50 (Leishmania donovani [5]; [12]): 3.1 µM; IC50 (J774A.1 macrophages [6]; [13]): 12 µM
8 | COC(=O)C(C)c1c(C2(C)CCCC(C)(C)C2)ccc2c1C(O)OC2=O (stereo not shown) [Dendrillin B (10), dendrillin B] |  | > 140 µM | 0% | 0% | 37% | 19.4% | 90.7% | IC50 (Leishmania donovani [1]; [12]): < 10 µM; IC50 (Leishmania donovani [1]; [14]): 3.5 µM; IC50 [7]: > 140 µM
9 | C[C@@H](CO)c1c([C@@]2(C)CCCC(C)(C)C2)ccc(CO)c1CO [Triol (15)] | 4.5 µM | > 160 µM | 81% | 2.2% | 2.6% | 12.3% | 9.3% | selectivity ratio [8]: > 38; selectivity index (SI, mammalian cytotoxicity/antiprotozoal activity) (Leishmania donovani [1]; J774A.1 cytotoxicity / L. donovani activity): ~40; IC50 (Leishmania donovani [1]; [12]): 4.2 µM; IC50 [7]: > 160 µM; Pathogen Activity, Plasmodium falciparum (Plasmodium falciparum [3]; Table 3, no unit printed there (≤16 μM)): ≤16; inhibition of the parasite cultures (Plasmodium falciparum) (Plasmodium falciparum [3]; at low micromolar concentrations): 100%; concentration with 100% inhibition against P. falciparum infected liver cells (Plasmodium falciparum [3]): ≤ 16 µM; cytotoxicity towards uninfected primary human hepatocytes (in words) [4]: no discernable cytotoxicity; Selectivity Index (SI), Plasmodium falciparum (Plasmodium falciparum [9]): >10
10 | C/C=C1/[C@@H]2[C@@H](OC(C)=O)O[C@@H](OC(C)=O)[C@@H]2CC[C@@H]1[C@@]1(C)CCCC(C)(C)C1 [9,11-Dihydrogracilin A (3), 9,11-dihydrogracilin A] |  |  | 0% | 1.1% | 0% | 29.1% | 12.7% | IC50 (Leishmania donovani [5]; [12]): 9.1 µM; IC50 (J774A.1 macrophages [6]; [13]): 23 µM
11 | C/C(=C1\CCCC1(C)C)[C@H]1CC[C@H]2C(=O)OC[C@H]2C1(C)C [Glaciolide (6), glaciolide] | 8.8 µM | > 170 µM | 0% | 4.5% | 20% | 20.8% | 32.2% | 
12 | COC(=O)[C@H](C)c1c([C@@]2(C)CCCC(C)(C)C2)ccc2c1C(=O)OC2 [Membranolide (5), membranolide] |  |  | 59.7% | 0% | ~100% | 99.9% | 100% | selectivity ratio [8]: 8; MRSA Biofilm Inhibition 25 μg/mL (MRSA biofilm; 25 μg/mL, % (Std. Dev.), n = 6): 99.7 (0.1) %; Pathogen Activity, MRSA Biofilm (MRSA biofilm): 58; concentration achieving 90% eradication of MRSA biofilm (MRSA biofilm; lowest concentration tested, 25 μg/mL, in molar units): 58 µM; concentration achieving 90% eradication of MRSA biofilm (MRSA biofilm; tested at 100, 50 and 25 µg/mL, 90% eradication): 25 µg/mL; IC50 (Leishmania donovani [5]; J774A.1 macrophages, single point determination, listed as 5, read-out: Leishmania donovani IC50 Infected Macrophage): < 10 µM; IC50 (Leishmania donovani [5]; [12]): 9.7 µM; IC50 (J774A.1 macrophages [6]; [15]): 77 µM; IC50 (J774A.1 macrophages [6]; cytotoxicity, uninfected J774A.1 macrophages, single point determination, listed as membranolide (5), read-out: Leishmania donovani IC50 Uninfected Macrophage): 76.8 µM; IC50 (J774A.1 macrophages [6]; [13]): 77 µM
13 | CCCCCCCCCCCCCCCCOP(=O)([O-])OCC[N+](C)(C)C [Miltefosine, miltefosine, reference compound] | 2.9 µM | > 120 µM |  |  |  |  |  | 
14 | CC(=O)O[C@@H]1O[C@H]2OC(=O)C3=C(C)[C@@H]([C@@]4(C)CCCC(C)(C)C4)CC[C@@H]1[C@H]32 [darwinolide (1), darwinolide] |  |  |  |  |  |  |  | potency against MRSA biofilm relative to planktonic MRSA [10]: four times more potent against the biofilm than it was against planktonic MRSA
15 | CC(=O)OC1OC2OC(=O)C(C)C3=C(C4(C)CCCC(C)(C)C4)CCC1C32 (stereo not shown) [Tetrahydroaplysulphurin-1 (4), tetrahydroaplysulphurin-1] |  |  | 66.7% | 3% | 35% | 31.1% | 20.8% | concentration with modest activity (60% inhibition) against P. falciparum infected liver cells (Plasmodium falciparum [3]): ≤ 13 µM; IC50 (Leishmania donovani [5]; [12]): 3.5 µM; IC50 (Leishmania donovani [5]; Table 3, unit not given (μM in Table 2), read-out: Pathogen Activity, Leishmania donovani): 3.5 µM; IC50 (J774A.1 macrophages [6]; [15]): > 130 µM; IC50 (J774A.1 macrophages [6]; [13]): > 130 µM
16 | COc1cc(NC(C)CCCN)c2ncccc2c1 (stereo not shown) [Primaquine, primaquine, reference compound] |  |  | 97.8% | 0% |  |  |  | 
